Reference: the NIST ThermoML archive (doi:10.1016/j.jct.2009.06.007)
± gives the expanded uncertainty stated by the source.

Legend:
[1] = 298.15 K, 101.33 kPa, Liquid
[2] = refractive index (Na D-line) (dimensionless); xn = mol fraction of the nth substance listed; conditions: 298.15 K, 101 kPa, Liquid, Standard Abbe refractometry
[3] = xn = mol fraction of the nth substance listed; conditions: 298.15 K, 101 kPa, Liquid; for viscosity: Capillary tube (Ostwald / Ubbelohde) method; for mass density: Vibrating tube method

SMILES: CCCCCCCCn1cc[n+](C)c1.O=S(=O)([N-]S(=O)(=O)C(F)(F)F)C(F)(F)F
- viscosity ([1]; Capillary tube (Ostwald / Ubbelohde) method): 92.51 ± 1.5 mPa·s
- mass density ([1]; Pycnometric method): 1320.59 ± 1.3 kg/m3

SMILES: CCCCCCCCn1cc[n+](C)c1.O=S(=O)([N-]S(=O)(=O)C(F)(F)F)C(F)(F)F + CO
- refractive index ([2]; x2 = 0.0654): 1.43207 ± 0.0007
- refractive index ([2]; x2 = 0.0863): 1.43188 ± 0.0007
- refractive index ([2]; x2 = 0.2134): 1.42995 ± 0.0007
- refractive index ([2]; x2 = 0.3138): 1.42809 ± 0.0007
- refractive index ([2]; x2 = 0.3873): 1.42619 ± 0.0007
- refractive index ([2]; x2 = 0.5038): 1.42266 ± 0.0007
- refractive index ([2]; x2 = 0.6155): 1.41741 ± 0.0007
- refractive index ([2]; x2 = 0.7018): 1.41157 ± 0.00071
- refractive index ([2]; x2 = 0.805): 1.40017 ± 0.00071
- refractive index ([2]; x2 = 0.902): 1.38017 ± 0.00071
- viscosity ([3]; x2 = 0.0654): 78.34 ± 2.3 mPa·s
- viscosity ([3]; x2 = 0.0863): 74.57 ± 2.1 mPa·s
- viscosity ([3]; x2 = 0.2134): 53.65 ± 1.3 mPa·s
- viscosity ([3]; x2 = 0.3138): 40.77 ± 0.9 mPa·s
- viscosity ([3]; x2 = 0.3873): 32.92 ± 0.68 mPa·s
- viscosity ([3]; x2 = 0.5038): 22.27 ± 0.41 mPa·s
- viscosity ([3]; x2 = 0.6155): 14.57 ± 0.24 mPa·s
- viscosity ([3]; x2 = 0.7018): 9.493 ± 0.14 mPa·s
- viscosity ([3]; x2 = 0.805): 4.919 ± 0.07 mPa·s
- viscosity ([3]; x2 = 0.902): 2.144 ± 0.03 mPa·s
- mass density ([3]; x2 = 0.0654): 1316.5 ± 0.47 kg/m3
- mass density ([3]; x2 = 0.0863): 1315.1 ± 0.46 kg/m3
- mass density ([3]; x2 = 0.2134): 1305.18 ± 0.39 kg/m3
- mass density ([3]; x2 = 0.3138): 1295.08 ± 0.34 kg/m3
- mass density ([3]; x2 = 0.3873): 1285.91 ± 0.31 kg/m3
- mass density ([3]; x2 = 0.5038): 1267.04 ± 0.27 kg/m3
- mass density ([3]; x2 = 0.6155): 1240.79 ± 0.24 kg/m3
- mass density ([3]; x2 = 0.7018): 1210.98 ± 0.26 kg/m3
- mass density ([3]; x2 = 0.805): 1154.04 ± 0.34 kg/m3
- mass density ([3]; x2 = 0.902): 1052.54 ± 0.43 kg/m3

SMILES: COC(C)=O [methyl ethanoate] + CO
- refractive index ([2]; x1 = 0.0939): 1.3322 ± 0.00068
- refractive index ([2]; x1 = 0.1986): 1.33757 ± 0.00068
- refractive index ([2]; x1 = 0.3009): 1.34192 ± 0.00068
- refractive index ([2]; x1 = 0.4016): 1.3456 ± 0.00068
- refractive index ([2]; x1 = 0.4943): 1.34851 ± 0.00068
- refractive index ([2]; x1 = 0.5851): 1.35095 ± 0.00068
- refractive index ([2]; x1 = 0.6941): 1.35349 ± 0.00068
- refractive index ([2]; x1 = 0.7694): 1.35503 ± 0.00068
- refractive index ([2]; x1 = 0.8875): 1.35712 ± 0.00068
- viscosity ([3]; x1 = 0.0939): 0.491 ± 0.006 mPa·s
- viscosity ([3]; x1 = 0.1986): 0.452 ± 0.006 mPa·s
- viscosity ([3]; x1 = 0.3009): 0.417 ± 0.005 mPa·s
- viscosity ([3]; x1 = 0.4016): 0.393 ± 0.005 mPa·s
- viscosity ([3]; x1 = 0.4943): 0.378 ± 0.005 mPa·s
- viscosity ([3]; x1 = 0.5851): 0.369 ± 0.005 mPa·s
- viscosity ([3]; x1 = 0.6941): 0.361 ± 0.004 mPa·s
- viscosity ([3]; x1 = 0.7694): 0.358 ± 0.004 mPa·s
- viscosity ([3]; x1 = 0.8875): 0.358 ± 0.004 mPa·s
- mass density ([3]; x1 = 0.0939): 810.62 ± 0.15 kg/m3
- mass density ([3]; x1 = 0.1986): 833.17 ± 0.14 kg/m3
- mass density ([3]; x1 = 0.3009): 851.78 ± 0.12 kg/m3
- mass density ([3]; x1 = 0.4016): 867.5 ± 0.12 kg/m3
- mass density ([3]; x1 = 0.4943): 880.02 ± 0.11 kg/m3
- mass density ([3]; x1 = 0.5851): 890.77 ± 0.1 kg/m3
- mass density ([3]; x1 = 0.6941): 902.17 ± 0.1 kg/m3
- mass density ([3]; x1 = 0.7694): 909.19 ± 0.09 kg/m3
- mass density ([3]; x1 = 0.8875): 918.93 ± 0.09 kg/m3

SMILES: CCCCCCCCn1cc[n+](C)c1.O=S(=O)([N-]S(=O)(=O)C(F)(F)F)C(F)(F)F + COC(C)=O
- refractive index ([2]; x2 = 0.0699): 1.4319 ± 0.0007
- refractive index ([2]; x2 = 0.1317): 1.43089 ± 0.0007
- refractive index ([2]; x2 = 0.1748): 1.43009 ± 0.0007
- refractive index ([2]; x2 = 0.2177): 1.42927 ± 0.0007
- refractive index ([2]; x2 = 0.3226): 1.42694 ± 0.00069
- refractive index ([2]; x2 = 0.4105): 1.42453 ± 0.00069
- refractive index ([2]; x2 = 0.5011): 1.42124 ± 0.00069
- refractive index ([2]; x2 = 0.6001): 1.41684 ± 0.00068
- refractive index ([2]; x2 = 0.6992): 1.41055 ± 0.00068
- refractive index ([2]; x2 = 0.7872): 1.40296 ± 0.00068
- refractive index ([2]; x2 = 0.8984): 1.387 ± 0.00068
- viscosity ([3]; x2 = 0.0699): 75.62 ± 2.1 mPa·s
- viscosity ([3]; x2 = 0.1317): 63.25 ± 1.6 mPa·s
- viscosity ([3]; x2 = 0.1748): 56.12 ± 1.4 mPa·s
- viscosity ([3]; x2 = 0.2177): 49.13 ± 1.2 mPa·s
- viscosity ([3]; x2 = 0.3226): 33.76 ± 0.7 mPa·s
- viscosity ([3]; x2 = 0.4105): 23.79 ± 0.44 mPa·s
- viscosity ([3]; x2 = 0.5011): 15.98 ± 0.27 mPa·s
- viscosity ([3]; x2 = 0.6001): 9.815 ± 0.15 mPa·s
- viscosity ([3]; x2 = 0.6992): 5.527 ± 0.079 mPa·s
- viscosity ([3]; x2 = 0.7872): 3.066 ± 0.042 mPa·s
- viscosity ([3]; x2 = 0.8984): 1.206 ± 0.017 mPa·s
- mass density ([3]; x2 = 0.0699): 1314.77 ± 0.47 kg/m3
- mass density ([3]; x2 = 0.1317): 1308.87 ± 0.43 kg/m3
- mass density ([3]; x2 = 0.1748): 1304.45 ± 0.41 kg/m3
- mass density ([3]; x2 = 0.2177): 1299.57 ± 0.38 kg/m3
- mass density ([3]; x2 = 0.3226): 1285.83 ± 0.33 kg/m3
- mass density ([3]; x2 = 0.4105): 1271.88 ± 0.3 kg/m3
- mass density ([3]; x2 = 0.5011): 1253.68 ± 0.27 kg/m3
- mass density ([3]; x2 = 0.6001): 1228.33 ± 0.24 kg/m3
- mass density ([3]; x2 = 0.6992): 1193.95 ± 0.24 kg/m3
- mass density ([3]; x2 = 0.7872): 1151.29 ± 0.29 kg/m3
- mass density ([3]; x2 = 0.8984): 1067.39 ± 0.32 kg/m3
